Experimental data published in patent US9770022B2, “N-cycloalkyl-N-[(bicyclylphenyl)methylene]-(thio)carboxamide derivatives” (BAYER CROPSCIENCE AG, priority 2013, dated 2017).
Where two headings read alike, the source gives them in different places.

Columns and labels:
[1] = tested on: Puccinia recondita; experiment: In vivo preventive test on Puccinia recondita (brown rust on wheat); settings: evaluated 11 days after inoculation
Description: (§1) Solvent: 5% by volume of Dimethyl sulfoxide
(§2) • 10% by volume of Acetone Emulsifier: 1 μl of Tween® 80 per mg of active ingredient
(§3) The active ingredients are made soluble and homogenized in a mixture of Dimethyl sulfoxide/Acetone/Tween® 80 and then diluted in water to the desired concentration.
(§4) The young plants of wheat are treated by spraying the active ingredient prepared as described above. Control plants are treated only with an aqueous solution of Acetone/Dimethyl sulfoxide/Tween® 80.
After 24 hours, the plants are contaminated by spraying the leaves with an aqueous suspension of Puccinia recondita spores. The contaminated wheat plants are incubated for 24 hours at 20° C. and at 100% relative humidity and then for 10 days at 20° C. and at 70-80% relative humidity.
(§5) The test is evaluated 11 days after the inoculation. 0% means an efficacy which corresponds to that of the control plants while an efficacy of 100% means that no disease is observed.

[2] = tested on: Septoria tritici; experiment: In vivo preventive test on Septoria tritici (wheat); settings: 500 ppm of active ingredient, evaluated 24 days after inoculation
Description: as §1, §2, §3, §4
After 24 hours, the plants are contaminated by spraying the leaves with an aqueous suspension of Septoria tritici spores. The contaminated wheat plants are incubated for 72 hours at 18° C. and at 100% relative humidity and then for 21 days at 20° C. and at 90% relative humidity.
The test is evaluated 24 days after the inoculation. 0% means an efficacy which corresponds to that of the control plants while an efficacy of 100% means that no disease is observed.

[3] = tested on: Sphaerotheca fuliginea; experiment: In vivo preventive test on Sphaerotheca fuliginea (powdery mildew on cucurbits); settings: gherkin, evaluated 15 days after inoculation
Description: as §1, §2, §3
The young plants of gherkin are treated by spraying the active ingredient prepared as described above. Control plants are treated only with an aqueous solution of Acetone/Dimethyl sulfoxide/Tween® 80.
After 24 hours, the plants are contaminated by spraying the leaves with an aqueous suspension of Sphaerotheca fuliginea spores. The contaminated gherkin plants are incubated for 72 hours at 18° C. and at 100% relative humidity and then for 12 days at 20° C. and at 70-80% relative humidity.
The test is evaluated 15 days after the inoculation. 0% means an efficacy which corresponds to that of the control plants while an efficacy of 100% means that no disease is observed.

[4] = tested on: Uromyces appendiculatus; experiment: In vivo preventive test on Uromyces appendiculatus (bean rust); settings: for pest or weed control at 500 ppm: Uromyces appendiculatus, 264 h
Description: as §1, §2, §3
The young plants of bean are treated by spraying the active ingredient prepared as described above. Control plants are treated only with an aqueous solution of Acetone/Dimethyl sulfoxide/Tween® 80.
After 24 hours, the plants are contaminated by spraying the leaves with an aqueous suspension of Uromyces appendiculatus spores. The contaminated bean plants are incubated for 24 hours at 20° C. and at 100% relative humidity and then for 10 days at 20° C. and at 70-80% relative humidity.
as §5

[5] = tested on: Pyrenophora teres; experiment: In vivo preventive test on Pyrenophora teres (barley); settings: 500 ppm of active ingredient, evaluated 14 days after inoculation
Description: as §1, §2, §3
The young plants of barley are treated by spraying the active ingredient prepared as described above. Control plants are treated only with an aqueous solution of Acetone/Dimethyl sulfoxide/Tween® 80.
After 24 hours, the plants are contaminated by spraying the leaves with an aqueous suspension of Pyrenophora teres spores. The contaminated barley plants are incubated for 48 hours at 20° C. and at 100% relative humidity and then for 12 days at 20° C. and at 70-80% relative humidity.
The test is evaluated 14 days after the inoculation. 0% means an efficacy which corresponds to that of the control plants while an efficacy of 100% means that no disease is observed.

[6] = log P by HPLC on reversed-phase column (C 18), EEC Directive 79/831 Annex V.A8; type: physicochemical; settings: for chromatographic logP: reversed-phase HPLC column (C 18)
Description: In table 1, the log P values were determined in accordance with EEC Directive 79/831 Annex V.A8 by HPLC (High Performance Liquid Chromatography) on a reversed-phase column (C 18), using the method described below:
Temperature: 40° C.; Mobile phases: 0.1% aqueous formic acid and acetonitrile; linear gradient from 10% acetonitrile to 90% acetonitrile.
Calibration was carried out using unbranched alkan-2-ones (comprising 3 to 16 carbon atoms) with known log P values (determination of the log P values by the retention times using linear interpolation between two successive alkanones). lambda-max-values were determined using UV-spectra from 200 nm to 400 nm and the peak values of the chromatographic signals.

[7] = 500 ppm, evaluated 11 days after inoculation, Table F2 comparison, read-out: Efficacy
[8] = Table 1, HPLC C 18, 40° C., 0.1% aqueous formic acid and acetonitrile, gradient 10% to 90% acetonitrile, two values = mixture of endo and exo isomers
[9] = 500 ppm of active ingredient, evaluated 11 days after inoculation

logP [6, 8] | Structure (SMILES) | Efficacy ([1]; 500 ppm of active ingredient) | Efficacy [2] | Efficacy ([3]; 500 ppm of active ingredient) | other results
 | Cn1nc(C(F)F)c(C(=O)N(Cc2ccccc2C2CC3CCC2C3)C2CC2)c1Cl (mixture of isomers) [I.02] | 88% | 86% | 98% | 
 | O=C(c1ccsc1Br)N(Cc1ccccc1C1CC2CCC1C2)C1CC1 (mixture of isomers) [I.04] |  | 79% |  | 
 | Cc1nn(C)c(F)c1C(=O)N(Cc1ccccc1C1CCCC1)C1CC1 [CMP4, N-(2-cyclopentylbenzyl)-N-cyclopropyl-5-fluoro-1,3-dimethyl-1H-pyrazole-4-carboxamide, reference compound] |  |  |  | pest or weed control at 500 ppm [4, 7]: < 40%
 | Cn1nc(C(F)F)c(C(=O)N(Cc2ccccc2C2CCCCC2)C2CC2)c1F [CMP5, N-(2-cyclohexylbenzyl)-N-cyclopropyl-3-(difluoromethyl)-5-fluoro-1-methyl-1H-pyrazole-4-carboxamide, reference compound] |  |  |  | pest or weed control at 500 ppm [4, 7]: < 40%
 | Cn1cc(C(=O)N(Cc2ccccc2C2CCCCC2)C2CC2)c(C(F)F)n1 [CMP6, N-(2-cyclohexylbenzyl)-N-cyclopropyl-3-(difluoromethyl)-1-methyl-1H-pyrazole-4-carboxamide, reference compound] |  |  |  | pest or weed control at 500 ppm [4, 7]: < 40%
 | CC(c1ccccc1C1CCCC1)N(C(=O)c1c(C(F)F)nn(C)c1Cl)C1CC1 (stereo not drawn) [CMP7, 5-chloro-N-[1-(2-cyclopentylphenyl)ethyl]-N-cyclopropyl-3-(difluoromethyl)-1-methyl-1H-pyrazole-4-carboxamide, reference compound] |  |  |  | pest or weed control at 500 ppm [4, 7]: < 40%
 | CC(c1ccccc1C1=CCCCC1)N(C(=O)c1c(C(F)F)nn(C)c1F)C1CC1 (stereo not drawn) [CMP8, N-{1-[2-(cyclohex-1-en-1-yl)phenyl]ethyl}-N-cyclopropyl-3-(difluoromethyl)-5-fluoro-1-methyl-1H-pyrazole-4-carboxamide, reference compound] |  |  |  | pest or weed control at 500 ppm ([4]; 500 ppm, evaluated 11 days after inoculation, Table F3 comparison, read-out: Efficacy): < 55%
5.45 | Cn1nc(C(F)F)c(C(=S)N(Cc2ccccc2C2CC3CCC2C3)C2CC2)c1Cl (stereo not drawn) [I.06] | 88% | 88% | 98% | Efficacy [5]: 75%; Efficacy [4, 9]: 99%
 | Cn1nc(C(F)F)c(C(=O)N(Cc2ccccc2C23CCCC2C3(Cl)Cl)C2CC2)c1F (stereo not drawn) [I.07, N-cyclopropyl-N-[2-(6,6-dichlorobicyclo[3.1.0]hex-1-yl)benzyl]-3-(difluoromethyl)-5-fluoro-1-methyl-1H-pyrazole-4-carboxamide] | 94% | 94% | 100% | Efficacy [5]: 81%; chromatographic logP [6, 8]: 4.46; pest or weed control at 500 ppm ([4]; 500 ppm of active ingredient, evaluated 11 days after inoculation, read-out: Efficacy): 100%
4.85 | Cn1nc(C(F)F)c(C(=O)N(Cc2cc(Cl)ccc2C23CCCC2C3(Cl)Cl)C2CC2)c1F (stereo not drawn) [I.08] | 88% | 94% | 100% | Efficacy [5]: 81%; Efficacy [4, 9]: 99%
4.82 | Cn1nc(C(F)F)c(C(=O)N(Cc2ccccc2C23CCCCC2C3(Cl)Cl)C2CC2)c1F (stereo not drawn) [I.10] | 88% | 88% | 100% | 
5.72 | Cn1cc(C(=O)N(Cc2ccccc2C2=CC3CCC2(C)C3(C)C)C2CC2)c(C(F)(F)F)c1 (stereo not drawn) [I.22] |  |  |  | 
7.09 | Cn1nc(C(F)F)c(C(=O)N(Cc2cc(CC3C4CCC(C4)C3(C)C)ccc2C(C)(C)C)C2CC2)c1F (stereo not drawn) [I.23] |  |  |  | Efficacy ([1]; at 100 ppm (note 1)): 79^(1) %; Efficacy ([3]; at 100 ppm (note 1)): 100^(1) %
 | c1ccc(C2CC3CCC2C3)c(CNC2CC2)c1 (stereo not drawn) [IIa.1, N-[2-(bicyclo[2.2.1]hept-2-yl)benzyl]cyclopropanamine] |  |  |  | chromatographic logP ([6]; Table 2 (amines IIa), same HPLC method, broad signal): 2.01

Structure (SMILES) | logP [6, 8] | Efficacy ([1]; 500 ppm of active ingredient) | Efficacy [2] | Efficacy ([3]; 500 ppm of active ingredient) | other results
Cc1nn(C)c(F)c1C(=O)N(Cc1ccccc1C1CC2CCC1C2)C1CC1 (stereo not drawn) [I.01, N-[2-(bicyclo[2.2.1]hept-2-yl)benzyl]-N-cyclopropyl-5-fluoro-1,3-dimethyl-1H-pyrazole-4-carboxamide] | 4.24 | 100% | 100% | 100% | Efficacy [5]: 100%; chromatographic logP [6, 8]: 4.16; Efficacy ([3]; 100 ppm, Table E2 comparison): total protection; pest or weed control at 500 ppm ([4]; read-out: Efficacy, 500 ppm of active ingredient, evaluated 11 days after inoculation): 100%; pest or weed control at 500 ppm ([4]; read-out: Efficacy, 500 ppm, evaluated 11 days after inoculation, Table F2 comparison): ≥ 80%
